Source: US20170313669A1, “LACTONE COMPOUNDS AND METHODS OF MAKING AND USING SAME” (THE SCRIPPS RESEARCH INSTITUTE, priority 2015, published 2017)

Biological target: T1, ABHD16A (Homo sapiens, UniProt O95870)
T1 sequence (O95870 1-558): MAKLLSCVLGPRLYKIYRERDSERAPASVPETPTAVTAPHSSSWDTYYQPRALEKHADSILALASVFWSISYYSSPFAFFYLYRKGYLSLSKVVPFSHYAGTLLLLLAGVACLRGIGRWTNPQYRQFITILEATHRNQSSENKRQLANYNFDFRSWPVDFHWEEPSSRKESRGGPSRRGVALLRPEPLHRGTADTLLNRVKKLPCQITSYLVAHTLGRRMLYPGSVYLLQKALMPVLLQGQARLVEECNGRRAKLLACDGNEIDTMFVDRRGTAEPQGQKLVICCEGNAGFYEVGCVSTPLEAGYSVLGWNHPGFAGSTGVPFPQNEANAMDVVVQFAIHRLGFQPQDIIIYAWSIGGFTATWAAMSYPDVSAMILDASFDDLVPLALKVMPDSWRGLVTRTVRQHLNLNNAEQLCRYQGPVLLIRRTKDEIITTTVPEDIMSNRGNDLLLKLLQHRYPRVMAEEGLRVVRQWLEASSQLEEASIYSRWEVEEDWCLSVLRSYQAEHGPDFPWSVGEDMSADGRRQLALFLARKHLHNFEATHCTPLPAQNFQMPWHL
Assay: PS substrate assay, human ABHD16A-transfected HEK293T membrane proteome
Format: biochemical
Design: transiently transfected with 12 μg of the full-length cDNA of human ABHD16A (Open Biosystems Catalog # MHS6278-202758315); host or cells: HEK293T, transient, pCMV-SPORT6
Method: HEK293T cells were grown to 40% confluence in a 15 cm dish in 25 mL of Dulbecco's modified Eagle medium (DMEM) supplemented with L-glutamine and 10% (vol/vol) FCS at 37° C. and 5% CO2 (vol/vol). The cells were transiently transfected with 12 μg of the full-length cDNA of human ABHD16A (Open Biosystems Catalog # MHS6278-202758315) or murine ABHD16A (Open Biosystems Catalog # MMM1013-202760516) in pCMV-SPORT6 vector using 40 μg polyethyleneimine “MAX” (MW 40,000) (PEI) (Polysciences Inc. Catalog #24765) as the transfection reagent as per manufacturer's instructions. As a “mock” control, an empty vector was transiently transfected. […] Protein concentration was measured using the Bio-Rad DC Protein Assay Kit as per manufacturer's protocol, and ABHD16A expression was confirmed using gel-based ABPP.
All the lipid species used in the lipid substrate hydrolysis assays were purchased from Avanti Polar Lipids Inc unless mentioned otherwise. […] All the data was collected and analyzed using the Agilent MassHunter Workstation software version B.04 using the Data Acquisition and Quantitative Analysis programs respectively. Measuring the area under the peak, and normalizing it to the internal standard quantified the product release for the lipid substrate hydrolysis assays. […] Some products from the substrate hydrolysis assays were detected in positive ion mode for qualitative identification. […]

For `CCCCCCCCCCCCCC1OC(=O)/C1=C\CCCCC(N)=O` (stereo not shown) [KC01, (Z)-6-(2-oxo-4-tridecyloxetan-3-ylidene)hexanamide], the IC50 was 90 ± 20 nM.
